The structures appear in SMILES notation.

One test concerns the target T1, CMKLR1 (Homo sapiens, UniProt Q99788).
T1 construct: expressed in transfected cells; host or cells: CHO-K1 cells expressing Gα-16 (CHO-Ga16-CMKLR1)
T1 sequence (Q99788 1-373): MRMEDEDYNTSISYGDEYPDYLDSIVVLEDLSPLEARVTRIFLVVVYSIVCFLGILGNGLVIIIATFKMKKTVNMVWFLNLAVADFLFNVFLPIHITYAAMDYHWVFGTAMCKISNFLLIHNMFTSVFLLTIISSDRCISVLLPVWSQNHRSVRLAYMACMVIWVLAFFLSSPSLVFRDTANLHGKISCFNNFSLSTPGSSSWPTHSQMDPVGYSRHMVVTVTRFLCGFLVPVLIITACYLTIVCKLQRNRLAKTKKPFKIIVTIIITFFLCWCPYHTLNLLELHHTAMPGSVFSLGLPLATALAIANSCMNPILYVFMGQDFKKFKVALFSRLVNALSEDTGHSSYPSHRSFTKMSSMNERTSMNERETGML
In words: Calcium mobilization assay (CHO-Ga16-CMKLR1 cells, chemerin-9 induced signal). As to conditions: Table 2, IC50 class, calcium signal induced by 2.5 nM chemerin-9. Type of test: cell-based. As for the experimental part: To establish a CMKLR1 calcium mobilization cell evaluation system, CHO-K1 cells expressing Gα-16 were transfected with pcDNA3.1-derived human CMKLR1-expressing plasmids using Lipofectamine 2000 (Invitrogen, Waltham, Massachusetts, USA). […] The established cell line (CHO-Ga16-CMKLR1) was cultured in F-12 medium (Invitrogen) supplemented with 10% (v/v) fetal bovine serum (FBS; Invitrogen), 0.5 mg/mL geneticin, 0.2 mg/mL hygromycin B (Clontech), and 1% (v/v) antibiotic-antimycotic solution (Invitrogen) under 5% CO2 at 37°C.
100 µL/well was added to a 96-well plate (Corning) and incubated for 24 h. The buffer solution was prepared by adding 1 M HEPES solution to Hanks' Balanced Salt Solution (HBSS) (Invitrogen) and adjusting the pH to 7.4 by dropwise addition of 1 M NaOH.
The fluorescent dye solution was prepared using the buffer provided with the Calcium 5 Assay Kit (Molecular Devices). 40 µL/well of dye solution was added to each well and incubated at 37°C in a 5% CO2 atmosphere for 30 min. […] The final DMSO concentration was adjusted to 2%. 40 µL of each compound solution was added to the well and incubated for 30 min. […] Prism 5 software (GraphPad) was then used to obtain IC50 values for various compounds. IC50 values were derived based on concentration-response curves, and all experiments were repeated at least three times.
In general, IC50 refers to the concentration that gives 50% inhibition. Regarding `COc1ccc(-c2nn(C3CCCC3)c3cc(COc4ccc(C(C)CC(=O)O)cc4)ccc23)cc1` (stereo not drawn) [Compound 15, 3-(4-((1-cyclopentyl-3-(4-methoxyphenyl)-1H-indazol-6-yl)methoxy)phenyl)butanoic acid], the half-maximal inhibitory concentration (IC50) is more than 1000 nM. Still for that read-out and setting: to `CC(CC(=O)O)c1ccc(OCc2ccc3c(-c4cccc5ccccc45)nn(C4CCCC4)c3c2)cc1` (stereo not drawn) [Compound 26, 3-(4-((1-cyclopentyl-3-(naphthalen-1-yl)-1H-indazol-6-yl)methoxy)phenyl)butanoic acid] belongs more than 1000 nM; to `CC(CC(=O)O)c1ccc(OCc2ccc3c(-c4ccc(Cl)cc4)nn(C4CCCC4)c3c2)cc1` (stereo not drawn) [Compound 18, 3-(4-((3-(4-chlorophenyl)-1-cyclopentyl-1H-indazol-6-yl)methoxy)phenyl)butanoic acid], more than 1000 nM.

As to `CCC(CC)Oc1ccc(-c2nn(C3CCCC3)c3cc(COc4ccc(C(C)CC(=O)O)cc4)ccc23)cc1` (stereo not drawn) [Compound 27, 3-(4-((1-cyclopentyl-3-(4-(pentan-3-yloxy)phenyl)-1H-indazol-6-yl)methoxy)phenyl)butanoic acid], the IC50 was more than 1000 nM. The same measure, in the same setting: the figure for `CC(CC(=O)O)c1ccc(OCc2ccc3c(-c4cc5ccccc5s4)nn(C4CCCC4)c3c2)cc1` (stereo not drawn) [Compound 25, 3-(4-((3-(benzo[b]thiophen-2-yl)-1-cyclopentyl-1H-indazol-6-yl)methoxy)phenyl)butanoic acid] is more than 1000 nM; for `CC(CC(=O)O)c1ccc(OCc2ccc3c(-c4ccc(-c5ccccc5)cc4)nn(C4CCCC4)c3c2)cc1` (stereo not drawn) [Compound 24, 3-(4-((3-([1,1'-biphenyl]-4-yl)-1-cyclopentyl-1H-indazol-6-yl)methoxy)phenyl)butanoic acid] it is more than 1000 nM; for `CCOc1ccc(-c2nn(C3CCCC3)c3cc(COc4ccc(C(C)CC(=O)O)cc4)ccc23)cc1` (stereo not drawn) [Compound 29, 3-(4-((1-cyclopentyl-3-(4-ethoxyphenyl)-1H-indazol-6-yl)methoxy)phenyl)butanoic acid] it is more than 1000 nM. On the same count and under the same terms, to `CC(CC(=O)O)c1ccc(OCc2ccc3c(-c4cc(Cl)c(O)c(Cl)c4)nn(C4CCCC4)c3c2)cc1` (stereo not drawn) [Compound 20, 3-(4-((1-cyclopentyl-3-(3,5-dichloro-4-hydroxyphenyl)-1H-indazol-6-yl)methoxy)phenyl)butanoic acid] belongs 100 to 1000 nM.

The same test, now with this note: Table 3, IC50 class, calcium signal induced by 2.5 nM chemerin-9.
With `CC(CC(=O)O)c1ccc(OCc2ccc3c(-c4nnn[nH]4)nn(C4CCCC4)c3c2)cc1` (stereo not drawn) [Compound 32, 3-(4-((1-cyclopentyl-3-(1H-tetrazol-5-yl)-1H-indazol-6-yl)methoxy)phenyl)butanoic acid], the IC50 is more than 1000 nM.

For the compound `C[C@@H](CC(=O)O)c1ccc(OCc2ccc3c(-c4cc(F)c(O)cc4F)nn(C4CCCC4)c3c2)cc1` [Compound 45, (S)-3-(4-((1-cyclopentyl-3-(2,5-difluoro-4-hydroxyphenyl)-1H-indazol-6-yl)methoxy)phenyl)butanoic acid], the IC50 was 100 to 1000 nM. Same read-out and setting: to `CC(CC(=O)O)c1ccc(OCc2ccc3c(-c4cc(F)c(/C=N/O)c(F)c4)nn(C4CCCC4)c3c2)cc1` (stereo not drawn) [Compound 34, (E)-3-(4-((1-cyclopentyl-3-(3,5-difluoro-4-((hydroxyimino)methyl)phenyl)-1H-indazol-6-yl)methoxy)phenyl)butanoic acid] belongs 100 to 1000 nM. On the same count and under the same terms, to `CC(CC(=O)O)c1ccc(OCc2ccc3c(-c4ccc5c(c4)OCO5)nn(C4CCCC4)c3c2)cc1` (stereo not drawn) [Compound 31, 3-(4-((3-(Benzo[d][1,3]dioxol-5-yl)-1-cyclopentyl-1H-indazol-6-yl)methoxy)phenyl)butanoic acid] belongs more than 1000 nM; to `C[C@@H](CC(=O)O)c1ccc(OCc2ccc3c(-c4ccc(O)c([N+](=O)[O-])c4)nn(C4CCCC4)c3c2)cc1` [Compound 37, (S)-3-(4-((1-cyclopentyl-3-(4-hydroxy-3-nitrophenyl)-1H-indazol-6-yl)methoxy)phenyl)butanoic acid], more than 1000 nM; to `C[C@@H](CC(=O)O)c1ccc(OCc2ccc3c(-c4cc(F)c(CO)c(F)c4)nn(C4CCCC4)c3c2)cc1` [Compound 47, (S)-3-(4-((1-cyclopentyl-3-(3,5-difluoro-4-(hydroxymethyl)phenyl)-1H-indazol-6-yl)methoxy)phenyl)butanoic acid], less than 100 nM.

Staying with this test, now noted: Table 4, IC50 class, calcium signal induced by 2.5 nM chemerin-9.
Take `CC(=O)Nc1ccc(-c2nn(C3CCCC3)c3cc(COc4ccc(C(C)CC(=O)O)cc4)ccc23)cc1` (stereo not drawn) [Compound 61, 3-(4-((3-(4-acetamidophenyl)-1-cyclopentyl-1H-indazol-6-yl)methoxy)phenyl)butanoic acid]: the IC50 was more than 1000 nM. On the same count and under the same terms, to `CC(CC(=O)O)c1ccc(OCc2cnc3c(-c4ccc(O)c(Cl)c4)nn(C4CCCC4)c3c2)cc1` (stereo not drawn) [Compound 75, 3-(4-((3-(3-chloro-4-hydroxyphenyl)-1-cyclopentyl-1H-pyrazolo[4,3-b]pyridin-6-yl)methoxy)phenyl)butanoic acid] belongs 100 to 1000 nM; to `C[C@@H](CC(=O)O)c1ccc(OCc2cc(F)c3c(-c4cc(Cl)c(O)c(Cl)c4)nn(C4CCCC4)c3c2)cc1` [Compound 69, (S)-3-(4-((1-cyclopentyl-3-(3,5-dichloro-4-hydroxyphenyl)-4-fluoro-1H-indazol-6-yl)methoxy)phenyl)butanoic acid], less than 100 nM.

For `CC(CC(=O)O)c1ccc(OCc2ccc3c(-c4ccc(N)cc4)nn(C4CCCC4)c3c2)cc1` (stereo not drawn) [Compound 59, 3-(4-((3-(4-aminophenyl)-1-cyclopentyl-1H-indazol-6-yl)methoxy)phenyl)butanoic acid], the IC50 was more than 1000 nM. Still for that read-out and setting: to `CC(CC(=O)O)c1ccc(OCc2cnc3c(-c4ccc(O)cc4)nn(C4CCCC4)c3c2)cc1` (stereo not drawn) [Compound 72, 3-(4-((1-cyclopentyl-3-(4-hydroxyphenyl)-1H-pyrazolo[4,3-b]pyridin-6-yl)methoxy)phenyl)butanoic acid] belongs 100 to 1000 nM; to `COc1ccc(-c2nn(C3CCCC3)c3cc(COc4ccc([C@H](C)CC(=O)O)cc4)ccc23)cc1` [Compound 57, (R)-3-(4-((1-cyclopentyl-3-(4-methoxyphenyl)-1H-indazol-6-yl)methoxy)phenyl)butanoic acid], more than 1000 nM.

Staying with this test, now noted: read-out: CMKLR1 activity in CHO cells (% inhibition at 10 µM), 10 µM compound, relative to calcium signal induced by 2.5 nM chemerin-9.
One may read the inhibition as the share of the control response that was lost under treatment. As to `CCC(CC(=O)O)c1ccc(OCc2ccc3c(-c4ccccc4)nn(C(C)C)c3c2)cc1` (stereo not drawn) [Compound 9, 3-(4-((1-isopropyl-3-phenyl-1H-indazol-6-yl)methoxy)phenyl)pentanoic acid], the inhibition at 10 µM was found to be 81%. Same read-out and setting: to `CC(C)C(CC(=O)O)c1ccc(OCc2ccc3c(-c4ccccc4)nn(C(C)C)c3c2)cc1` (stereo not drawn) [Compound 8, 3-(4-((1-isopropyl-3-phenyl-1H-indazol-6-yl)methoxy)phenyl)-4-methylpentanoic acid] belongs 25%. As for `CC(C)Cn1nc(-c2ccccc2)c2ccc(COc3ccc(C(C)CC(=O)O)cc3)cc21` (stereo not drawn) [Compound 80, 3-(4-((1-isobutyl-3-phenyl-1H-indazol-6-yl)methoxy)phenyl)butanoic acid], the inhibition at 10 µM was determined as 52%. Still for that read-out and setting: to `CCCn1nc(-c2ccccc2)c2ccc(COc3ccc(C(C)CC(=O)O)cc3)cc21` (stereo not drawn) [Compound 79, 3-(4-((3-phenyl-1-propyl-1H-indazol-6-yl)methoxy)phenyl)butanoic acid] belongs 60%.
